Structures can show the parent of a compound that is named as a salt. Where two headings read alike, the source gives them in different places.
Tested on: HT29
Conditions: 72 h, 10 µM
How it was run: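 HT29 viability used WST-1 reduction (2 h, 37 °C, A450) after 72 h of treatment; screening compounds were tested singly at 10 µM, with dimethyl sulfoxide as the comparison.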

[1] = relative to DMSO, Relative cell viability (%)

| Compound | Relative cell viability (%) (relative to DMSO) [%] | other results |
| --- | --- | --- |
| CC1=NN(c2ccc(C)c(C)c2)C(=O)/C1=N\Nc1cccc(-c2cccc(C(=O)O)c2)c1O [Eltrombopag Olamine] | 122 |  |
| COc1cc2c(cc1Cc1cccc(Cl)c1F)c(=O)c(C(=O)O)cn2[C@H](CO)C(C)C [Elvitegravir (GS-9137, JTK-303)] | 58.4 |  |
| CCCCCCCCCCCC1=C(O)C(=O)C=C(O)C1=O [Embelin] | 140.6 |  |
| OC[C@H]1O[C@@H](c2ccc(Cl)c(Cc3ccc(O[C@H]4CCOC4)cc3)c2)[C@H](O)[C@@H](O)[C@@H]1O [Empagliflozin (BI 10773)] | 75.21 |  |
| C[C@H](NC(=O)C(=O)Nc1ccccc1C(C)(C)C)C(=O)N[C@@H](CC(=O)O)C(=O)COc1c(F)c(F)cc(F)c1F [Emricasan] | 86.75 |  |
| CCOC(=O)[C@H](CCc1ccccc1)N[C@@H](C)C(=O)N1CCC[C@H]1C(=O)O [Enalapril Maleate] | 98.82 |  |
| CCn1cc(C(=O)O)c(=O)c2cc(F)c(N3CCNCC3)nc21 [Enoxacin] | 74.15 |  |
| CCN1CCN(c2cc3c(cc2F)c(=O)c(C(=O)O)cn3C2CC2)CC1 [Enrofloxacin] | 78.16 |  |
| C=C1[C@H](CO)[C@@H](O)C[C@@H]1n1cnc2c(=O)[nH]c(N)nc21 [Entecavir Hydrate] | 99.22 |  |
| CN1CCN(c2ccc(C(=O)Nc3n[nH]c4ccc(Cc5cc(F)cc(F)c5)cc34)c(NC3CCOCC3)c2)CC1 [Entrectinib (RXDX-101)] | 2.137 |  |
| CNC(=O)c1ccc(N2C(=S)N(c3ccc(C#N)c(C(F)(F)F)c3)C(=O)C2(C)C)cc1F [Enzalutamide (MDV3100)] | 86.76 |  |
| NS(=O)(=O)NCCNc1nonc1C(=NO)Nc1ccc(F)c(Br)c1 [Epacadostat (INCB024360)] | 100.9 |  |
| CC(/C=C1\SC(=S)N(CC(=O)O)C1=O)=C\c1ccccc1 [Epalrestat] | 135.7 |  |
| NC1=NCC2c3ccccc3Cc3ccccc3N12 (stereo not shown) [Epinastine HCl] | 78.48 |  |
| CNC[C@H](O)c1ccc(O)c(O)c1 [Epinephrine HCl] | 70.87 |  |
| COc1cccc2c1C(=O)c1c(O)c3c(c(O)c1C2=O)C[C@@](O)(C(=O)CO)C[C@@H]3O[C@H]1C[C@H](N)[C@@H](O)[C@H](C)O1 [Epirubicin HCl] | 10.44 |  |
| C/C(=C\c1csc(C)n1)[C@@H]1C[C@@H]2O[C@]2(C)CCC[C@H](C)[C@H](O)[C@@H](C)C(=O)C(C)(C)[C@@H](O)CC(=O)O1 [Epothilone B (EPO906, Patupilone)] | 7.321 |  |
| O=C(O)CSCC(=O)NC1CCSC1=O (stereo not shown) [Erdosteine] | 104.7 |  |
| C#Cc1cccc(Nc2ncnc3cc(OCCOC)c(OCCOC)cc23)c1 [Erlotinib] | 79.06 |  |
| COc1ccc2nc([S@@+]([O-])Cc3ncc(C)c(OC)c3C)[nH]c2c1 [Esomeprazole Magnesium] |  | Relative cell viability (%) [1]: 80.51% |
| COc1ccc2nc([S@@+]([O-])Cc3ncc(C)c(OC)c3C)[nH]c2c1 [Esomeprazole Sodium] |  | Relative cell viability (%) [1]: 105.5% |

| Compound | Relative cell viability (%) (relative to DMSO) [%] | other results |
| --- | --- | --- |
| CCOc1ccc2nc3cc(N)ccc3c(N)c2c1 [Ethacridine lactate monohydrate] | 39.39 |  |
| CCc1cc(C(N)=S)ccn1 [Ethionamide] | 62.71 |  |
| CCc1cccc2c3c([nH]c12)C(CC)(CC(=O)O)OCC3 (stereo not shown) [Etodolac] | 86.76 |  |
| CCOC(=O)c1cncn1[C@H](C)c1ccccc1 [Etomidate] | 60.28 |  |
| COc1cc([C@@H]2c3cc4c(cc3[C@@H](O[C@@H]3O[C@@H]5CO[C@@H](C)O[C@H]5[C@H](O)[C@H]3O)[C@H]3COC(=O)[C@H]23)OCO4)cc(OC)c1O [Etoposide] | 117.9 |  |
| Cc1cc(C)c2c(c1)[C@@H](N(Cc1cc(C(F)(F)F)cc(C(F)(F)F)c1)c1nnn(C)n1)CCCN2C[C@H]1CC[C@H](C(=O)O)CC1 [Evacetrapib (LY2484595)] | 40.29 |  |
| O=c1[nH]c(=O)n(C2CCCO2)cc1F (stereo not shown) [FT-207 (NSC 148958)] | 74.3 |  |
| NC(N)=Nc1nc(CSCCC(N)=NS(N)(=O)=O)cs1 [Famotidine] | 119.6 |  |
| NC(=O)OCC(COC(N)=O)c1ccccc1 [Felbamate] | 69.63 |  |
| CCOC(=O)C1=C(C)NC(C)=C(C(=O)OC)C1c1cccc(Cl)c1Cl (stereo not shown) [Felodipine] | 60.17 |  |
| CC(C)OC(=O)C(C)(C)Oc1ccc(C(=O)c2ccc(Cl)cc2)cc1 [Fenofibrate] | 74.15 |  |
| CC(C(=O)O)c1cccc(Oc2ccccc2)c1 (stereo not shown) [Fenoprofen Calcium] | 99.58 |  |
| Clc1ccc(C(Cn2ccnc2)OCc2ccc(Sc3ccccc3)cc2)c(Cl)c1 (stereo not shown) [Fenticonazole Nitrate] | 58.4 |  |
| CC(C)C(=O)Oc1ccc(CO)cc1[C@H](CCN(C(C)C)C(C)C)c1ccccc1 [Fesoterodine Fumarate] | 112.6 |  |
| CCc1c(Cl)c(O)c(Cl)c(O)c1C(=O)O[C@H]1[C@H](O)[C@H](OC)[C@H](OC/C2=C\C=C\C[C@H](O)/C(C)=C/[C@H](CC)[C@@H](O[C@@H]3OC(C)(C)[C@@H](OC(=O)C(C)C)[C@H](O)[C@@H]3O)/C(C)=C/C(C)=C/C[C@@H]([C@@H](C)O)OC2=O)O[C@@H]1C [Fidaxomicin] |  | Relative cell viability (%) (ht29 cells): 94.85% |
| O=C(Nc1nc2cccc(-c3ccc(CN4CCS(=O)(=O)CC4)cc3)n2n1)C1CC1 [Filgotinib (GLPG0634)] |  | Relative cell viability (%) (ht29 cells): 50.85% |
| CCCCCCCCc1ccc(CCC(N)(CO)CO)cc1 [Fingolimod (FTY720) HCl] | 0 |  |
| CN1CC[C@H](c2c(O)cc(O)c3c(=O)cc(-c4ccccc4Cl)oc23)[C@H](O)C1 [Flavopiridol (Alvocidib)] | 8.879 |  |
| CS(=O)(=O)c1ccc([C@@H](O)[C@@H](CF)NC(=O)C(Cl)Cl)cc1 [Florfenicol] | 85.76 |  |
| O=c1[nH]c(=O)n([C@H]2C[C@H](O)[C@@H](CO)O2)cc1F [Floxuridine] | 44.7 |  |
| COC(=O)Nc1nc2cc(C(=O)c3ccc(F)cc3)ccc2[nH]1 [Flubendazole] | 16.95 |  |

| Compound | Relative cell viability (%) (relative to DMSO) [%] | other results |
| --- | --- | --- |
| OC(Cn1cncn1)(Cn1cncn1)c1ccc(F)cc1F [Fluconazole] | 66.51 |  |
| Nc1nc(F)nc2c1ncn2[C@@H]1O[C@H](COP(=O)(O)O)[C@@H](O)[C@@H]1O [Fludarabine Phosphate] | 52.49 |  |
| O=C(O)c1ccccc1Nc1cccc(C(F)(F)F)c1 [Flufenamic acid] | 80.303 |  |
| CCOC(=O)c1ncn2c1CN(C)C(=O)c1cc(F)ccc1-2 [Flumazenil] | 80.53 |  |
| Fc1ccc(C(c2ccc(F)cc2)N2CCN(C/C=C/c3ccccc3)CC2)cc1 [Flunarizine 2HCl] | 73.29 |  |
| Cc1c(Nc2ncccc2C(=O)O)cccc1C(F)(F)F [Flunixin Meglumin] | 128.5 |  |
| CC(=O)OCC(=O)[C@@]12OC(C)(C)O[C@@H]1C[C@H]1[C@@H]3C[C@H](F)C4=CC(=O)C=C[C@]4(C)[C@@]3(F)[C@@H](O)C[C@@]12C [Fluocinonide] | 56.31 |  |
| CC(=O)O[C@]1(C(C)=O)CC[C@H]2[C@@H]3C[C@H](C)C4=CC(=O)C=C[C@]4(C)[C@@]3(F)[C@@H](O)C[C@@]21C [Fluorometholone Acetate] | 86.67 |  |
| CNCCC(Oc1ccc(C(F)(F)F)cc1)c1ccccc1 (stereo not shown) [Fluoxetine HCl] | 86.76 |  |
| CC(C)C(=O)Nc1ccc([N+](=O)[O-])c(C(F)(F)F)c1 [Flutamide] | 100.9 |  |
| CCC(=O)O[C@]1(C(=O)SCF)[C@H](C)C[C@H]2[C@@H]3C[C@H](F)C4=CC(=O)C=C[C@]4(C)[C@@]3(F)[C@@H](O)C[C@@]21C [Fluticasone propionate] | 173.6 |  |
| COCCCC/C(=N\OCCN)c1ccc(C(F)(F)F)cc1 [Fluvoxamine maleate] | 72.74 |  |
| C[C@]12CCC(=O)C(O)=C1CC[C@@H]1[C@@H]2CC[C@]2(C)C(=O)CC[C@@H]12 [Formestane] | 110.8 |  |
| C[C@@H](O[C@H]1OCCN(Cc2nc(O)n(P(=O)(O)O)n2)[C@H]1c1ccc(F)cc1)c1cc(C(F)(F)F)cc(C(F)(F)F)c1 [Fosaprepitant dimeglumine salt] | 111.6 |  |
| COc1cc(Nc2ncc(F)c(Nc3ccc4c(n3)N(COP(=O)(O)O)C(=O)C(C)(C)O4)n2)cc(OC)c1OC [Fostamatinib (R788)] |  | Relative cell viability (%) [1]: 28.64% |
| O=C1OC(CN2CCOCC2)CN1/N=C/c1ccc([N+](=O)[O-])o1 (stereo not shown) [Furaltadone HCl] | 75.76 |  |
| c1cn2cc(-c3ccc4cn[nH]c4c3)nc(Nc3ccc(N4CCOCC4)cc3)c2n1 [GS-9973] | 116.2 |  |
| COc1ncc(-c2ccc3nccc(-c4ccnnc4)c3c2)cc1NS(=O)(=O)c1ccc(F)cc1F [GSK2126458 (GSK458)] | 12.62 |  |
| CCOC(=O)c1ccc(OC(=O)CCCCCNC(=N)N)cc1 [Gabexate Mesylate] | 124.4 |  |

— article PMC11672294, “The Antipsychotic Drug Aripiprazole Suppresses Colorectal Cancer by Targeting LAMP2a to Induce RNH1/miR‐99a/mTOR‐Mediated Autophagy and Apoptosis” (Advanced Science, 2024)
